Measurements from ChEMBL document CHEMBL5696442, “Discovery of type II inhibitors of TGFβ-activated kinase 1 (TAK1) and mitogen-activated protein kinase kinase kinase kinase 2 (MAP4K2)” (J Med Chem, 2015).
Active and inactive are the calls of the source. No cut-off for these calls is given here.

Columns and labels:
[1] = molecular target: Cyclin-dependent kinase 14 (Homo sapiens) (UniProt O94921); test: Inhibition of PFTAIRE1 Lys1 labeling site in human A-375 cells at 5 uM by KiNativ Profiling analysis relative to control
[2] = molecular target: Serine/threonine-protein kinase/endoribonuclease IRE1 (Homo sapiens) (UniProt O75460); test: Inhibition of IRE1 Lys2 labeling site in human A-375 cells at 0.05 uM by KiNativ Profiling analysis relative to control; format: cell-based
[3] = molecular target: T1, Mitogen-activated protein kinase kinase kinase 15 (Homo sapiens) (UniProt Q6ZN16); test: Inhibition of MAP3K15 Lys1 labeling site harbouring IAIKEIPER in human A-375 cells at 5 uM by KiNativ Profiling analysis relative to control; format: cell-based
T1 sequence (whole entry): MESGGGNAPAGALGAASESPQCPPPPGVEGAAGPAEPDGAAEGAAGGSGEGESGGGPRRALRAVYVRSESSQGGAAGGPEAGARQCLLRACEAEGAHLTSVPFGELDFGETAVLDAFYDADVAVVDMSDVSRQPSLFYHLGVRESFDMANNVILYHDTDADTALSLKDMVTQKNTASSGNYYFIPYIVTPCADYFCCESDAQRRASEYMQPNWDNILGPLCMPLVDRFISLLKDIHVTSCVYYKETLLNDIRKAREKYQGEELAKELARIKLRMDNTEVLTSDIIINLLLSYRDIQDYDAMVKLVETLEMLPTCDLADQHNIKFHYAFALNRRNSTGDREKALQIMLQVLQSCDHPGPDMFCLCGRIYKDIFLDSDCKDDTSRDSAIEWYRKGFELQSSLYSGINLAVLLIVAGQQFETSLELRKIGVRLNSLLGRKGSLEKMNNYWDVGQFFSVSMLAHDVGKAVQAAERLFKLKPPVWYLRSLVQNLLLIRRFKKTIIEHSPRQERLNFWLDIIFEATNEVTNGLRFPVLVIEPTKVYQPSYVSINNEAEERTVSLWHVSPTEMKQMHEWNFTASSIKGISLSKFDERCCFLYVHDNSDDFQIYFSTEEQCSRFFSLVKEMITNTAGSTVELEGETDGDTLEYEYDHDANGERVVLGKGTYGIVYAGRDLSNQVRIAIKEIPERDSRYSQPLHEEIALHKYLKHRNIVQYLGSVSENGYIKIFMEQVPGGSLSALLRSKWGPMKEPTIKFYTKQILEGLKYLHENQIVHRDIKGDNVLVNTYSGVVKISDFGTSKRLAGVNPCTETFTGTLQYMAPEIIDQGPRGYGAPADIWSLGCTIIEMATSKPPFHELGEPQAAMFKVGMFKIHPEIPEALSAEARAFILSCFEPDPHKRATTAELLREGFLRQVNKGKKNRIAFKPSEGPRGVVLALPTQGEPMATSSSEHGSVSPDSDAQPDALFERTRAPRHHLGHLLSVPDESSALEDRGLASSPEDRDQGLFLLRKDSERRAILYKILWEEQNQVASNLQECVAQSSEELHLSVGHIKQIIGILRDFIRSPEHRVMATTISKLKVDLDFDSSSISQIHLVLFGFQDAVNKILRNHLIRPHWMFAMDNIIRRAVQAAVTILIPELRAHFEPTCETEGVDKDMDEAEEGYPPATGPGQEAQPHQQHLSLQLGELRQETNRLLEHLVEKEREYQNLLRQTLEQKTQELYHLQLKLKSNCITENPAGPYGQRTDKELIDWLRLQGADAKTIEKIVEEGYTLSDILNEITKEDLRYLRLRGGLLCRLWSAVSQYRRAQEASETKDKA

[4] = molecular target: Cyclin-dependent kinase 7 (Homo sapiens) (UniProt P50613); test: Inhibition of CDK7 (unknown origin) at 10 uM by Ambit Kinomescan binding assay relative to control
[5] = molecular target: T2, Serine/threonine-protein kinase Nek9 (Homo sapiens) (UniProt Q8TD19); test: Inhibition of NEK9 K1 labeling site harbouring TEDDSLVVWKEVDLTR in human Huh-7 cells at 10 uM by KiNativ Profiling analysis relative to control; format: cell-based
T2 sequence (whole entry): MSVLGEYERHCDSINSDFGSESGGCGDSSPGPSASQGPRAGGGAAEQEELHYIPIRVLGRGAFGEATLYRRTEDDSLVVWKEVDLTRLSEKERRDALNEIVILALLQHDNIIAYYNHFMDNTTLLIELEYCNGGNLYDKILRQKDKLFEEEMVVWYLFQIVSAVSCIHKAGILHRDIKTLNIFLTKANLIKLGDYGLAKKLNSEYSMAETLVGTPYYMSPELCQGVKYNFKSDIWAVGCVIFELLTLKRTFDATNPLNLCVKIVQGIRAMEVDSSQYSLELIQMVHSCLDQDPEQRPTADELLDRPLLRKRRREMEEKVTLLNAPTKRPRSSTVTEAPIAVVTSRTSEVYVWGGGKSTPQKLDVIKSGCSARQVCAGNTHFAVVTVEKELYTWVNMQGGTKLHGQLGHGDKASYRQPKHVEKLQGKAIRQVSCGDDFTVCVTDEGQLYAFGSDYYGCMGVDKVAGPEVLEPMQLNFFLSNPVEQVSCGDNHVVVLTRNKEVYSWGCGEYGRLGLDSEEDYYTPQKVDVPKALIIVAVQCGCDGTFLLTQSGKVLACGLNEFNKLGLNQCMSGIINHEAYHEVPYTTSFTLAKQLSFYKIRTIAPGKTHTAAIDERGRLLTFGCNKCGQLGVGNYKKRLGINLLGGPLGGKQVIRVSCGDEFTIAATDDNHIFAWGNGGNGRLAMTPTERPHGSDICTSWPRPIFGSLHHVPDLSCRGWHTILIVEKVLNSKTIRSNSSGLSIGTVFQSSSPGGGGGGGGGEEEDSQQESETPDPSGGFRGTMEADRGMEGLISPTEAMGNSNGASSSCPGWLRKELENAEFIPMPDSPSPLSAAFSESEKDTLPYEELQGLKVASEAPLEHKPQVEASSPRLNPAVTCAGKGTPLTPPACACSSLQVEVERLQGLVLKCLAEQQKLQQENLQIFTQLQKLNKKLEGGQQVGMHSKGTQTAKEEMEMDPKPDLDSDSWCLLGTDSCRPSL

[6] = molecular target: Ephrin type-A receptor 6 (Homo sapiens) (UniProt Q9UF33); test: Inhibition of EPHA6 (unknown origin) at 10 uM by Ambit Kinomescan binding assay
[7] = molecular target: Uncharacterized serine/threonine-protein kinase SBK3 (Homo sapiens) (UniProt P0C264); test: Inhibition of SgK110 (unknown origin) at 1 uM by Ambit Kinomescan binding assay relative to control
Sequence of Uncharacterized serine/threonine-protein kinase SBK3 (Homo sapiens) (P0C264 whole entry): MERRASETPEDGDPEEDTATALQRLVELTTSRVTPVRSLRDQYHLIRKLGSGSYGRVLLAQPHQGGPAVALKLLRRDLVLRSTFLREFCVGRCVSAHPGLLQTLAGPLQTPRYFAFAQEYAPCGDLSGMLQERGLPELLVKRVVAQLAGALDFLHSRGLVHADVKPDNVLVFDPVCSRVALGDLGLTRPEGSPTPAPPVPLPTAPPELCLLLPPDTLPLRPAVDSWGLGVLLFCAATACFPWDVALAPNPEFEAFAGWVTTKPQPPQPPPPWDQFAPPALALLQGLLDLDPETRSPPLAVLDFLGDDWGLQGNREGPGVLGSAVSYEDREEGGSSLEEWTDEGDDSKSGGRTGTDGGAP

Sequence of Ephrin type-A receptor 6 (Homo sapiens) (Q9UF33 whole entry): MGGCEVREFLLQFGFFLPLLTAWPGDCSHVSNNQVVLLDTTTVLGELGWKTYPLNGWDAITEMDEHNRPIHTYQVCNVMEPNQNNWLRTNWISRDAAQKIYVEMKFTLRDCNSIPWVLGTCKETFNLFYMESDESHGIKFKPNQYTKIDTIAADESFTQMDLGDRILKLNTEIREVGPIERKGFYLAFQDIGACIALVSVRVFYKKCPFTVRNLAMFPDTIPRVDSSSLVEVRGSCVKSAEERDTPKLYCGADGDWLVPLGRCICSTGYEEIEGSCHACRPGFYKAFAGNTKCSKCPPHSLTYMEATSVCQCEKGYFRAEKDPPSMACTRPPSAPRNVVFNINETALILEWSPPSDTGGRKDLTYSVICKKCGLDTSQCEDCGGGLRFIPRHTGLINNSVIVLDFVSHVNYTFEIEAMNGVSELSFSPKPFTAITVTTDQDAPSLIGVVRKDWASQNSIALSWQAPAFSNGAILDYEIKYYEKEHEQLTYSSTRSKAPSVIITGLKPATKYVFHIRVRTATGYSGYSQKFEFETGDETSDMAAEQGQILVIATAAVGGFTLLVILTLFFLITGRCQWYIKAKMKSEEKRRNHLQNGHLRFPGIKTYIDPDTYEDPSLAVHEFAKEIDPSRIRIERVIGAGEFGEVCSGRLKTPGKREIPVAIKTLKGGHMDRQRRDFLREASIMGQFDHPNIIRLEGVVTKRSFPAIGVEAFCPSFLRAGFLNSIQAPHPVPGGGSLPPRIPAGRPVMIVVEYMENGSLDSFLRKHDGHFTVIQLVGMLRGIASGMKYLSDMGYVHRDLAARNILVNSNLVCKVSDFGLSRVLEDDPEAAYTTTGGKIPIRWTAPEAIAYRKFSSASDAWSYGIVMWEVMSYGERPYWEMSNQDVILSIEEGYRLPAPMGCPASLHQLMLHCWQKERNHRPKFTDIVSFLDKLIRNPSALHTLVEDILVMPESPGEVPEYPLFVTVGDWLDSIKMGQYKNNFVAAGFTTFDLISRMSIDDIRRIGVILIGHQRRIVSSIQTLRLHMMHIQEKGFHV
Sequence of Cyclin-dependent kinase 14 (Homo sapiens) (O94921 whole entry, looked up): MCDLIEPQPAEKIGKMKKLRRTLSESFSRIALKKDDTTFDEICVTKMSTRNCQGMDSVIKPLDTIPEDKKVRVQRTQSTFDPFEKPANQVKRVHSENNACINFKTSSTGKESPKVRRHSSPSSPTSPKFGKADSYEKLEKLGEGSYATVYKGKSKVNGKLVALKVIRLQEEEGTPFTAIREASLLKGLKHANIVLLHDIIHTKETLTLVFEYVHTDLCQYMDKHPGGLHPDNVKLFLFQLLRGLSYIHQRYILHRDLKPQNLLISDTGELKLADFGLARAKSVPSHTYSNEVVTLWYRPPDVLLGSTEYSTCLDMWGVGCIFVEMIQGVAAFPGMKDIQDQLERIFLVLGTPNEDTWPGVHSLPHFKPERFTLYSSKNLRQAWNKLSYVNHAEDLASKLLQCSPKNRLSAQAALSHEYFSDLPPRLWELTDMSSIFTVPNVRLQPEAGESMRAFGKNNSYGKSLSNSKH
Sequence of Cyclin-dependent kinase 7 (Homo sapiens) (P50613 whole entry): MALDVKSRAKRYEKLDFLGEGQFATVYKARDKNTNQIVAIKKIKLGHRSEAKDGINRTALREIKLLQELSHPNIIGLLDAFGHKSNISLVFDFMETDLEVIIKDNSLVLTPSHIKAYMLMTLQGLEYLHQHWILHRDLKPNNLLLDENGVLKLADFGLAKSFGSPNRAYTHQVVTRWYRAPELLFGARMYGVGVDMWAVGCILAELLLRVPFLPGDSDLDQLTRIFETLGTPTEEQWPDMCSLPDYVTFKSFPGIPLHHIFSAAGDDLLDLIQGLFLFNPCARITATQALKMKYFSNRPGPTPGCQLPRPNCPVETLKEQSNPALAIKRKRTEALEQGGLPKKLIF
Sequence of Serine/threonine-protein kinase/endoribonuclease IRE1 (Homo sapiens) (O75460 19-977 limits assumed): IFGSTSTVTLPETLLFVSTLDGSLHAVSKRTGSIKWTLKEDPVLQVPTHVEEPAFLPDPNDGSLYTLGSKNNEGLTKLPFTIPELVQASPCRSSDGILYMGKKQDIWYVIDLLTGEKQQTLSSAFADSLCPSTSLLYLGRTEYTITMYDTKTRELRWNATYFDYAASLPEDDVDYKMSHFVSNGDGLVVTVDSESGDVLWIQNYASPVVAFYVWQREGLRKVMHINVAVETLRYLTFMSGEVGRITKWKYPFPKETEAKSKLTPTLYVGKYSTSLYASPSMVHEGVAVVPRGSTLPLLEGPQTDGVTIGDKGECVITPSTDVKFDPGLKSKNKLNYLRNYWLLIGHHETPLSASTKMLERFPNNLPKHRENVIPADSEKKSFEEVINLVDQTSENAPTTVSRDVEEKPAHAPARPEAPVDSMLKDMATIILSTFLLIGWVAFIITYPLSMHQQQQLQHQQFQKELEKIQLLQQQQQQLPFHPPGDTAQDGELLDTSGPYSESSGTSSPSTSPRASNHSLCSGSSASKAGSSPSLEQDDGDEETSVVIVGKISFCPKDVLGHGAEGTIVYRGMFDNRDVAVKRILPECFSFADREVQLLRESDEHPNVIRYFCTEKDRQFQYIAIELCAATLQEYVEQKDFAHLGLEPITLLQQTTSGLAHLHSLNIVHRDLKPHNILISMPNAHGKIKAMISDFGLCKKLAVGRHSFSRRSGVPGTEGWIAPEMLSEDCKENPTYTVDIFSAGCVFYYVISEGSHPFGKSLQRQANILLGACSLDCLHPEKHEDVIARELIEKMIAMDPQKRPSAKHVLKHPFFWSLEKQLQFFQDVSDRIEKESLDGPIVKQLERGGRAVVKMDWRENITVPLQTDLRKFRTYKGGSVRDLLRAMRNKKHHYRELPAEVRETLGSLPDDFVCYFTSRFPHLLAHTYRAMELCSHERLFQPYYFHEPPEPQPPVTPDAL

Row | SMILES | inhibition [1] [%] | inhibition [2] [%] | inhibition [3] [%] | inhibition [4] [%] | inhibition [5] [%] | inhibition [6] | inhibition [7] [%]
1 | CCN1CCN(Cc2ccc(NC(=O)c3ccc(C)c(Oc4ccnc5[nH]ccc45)c3)cc2C(F)(F)F)CC1 | 81 | 15.9 | -0.6 | 2.4 | 18.6 | inactive | –
2 | CCN1CCN(Cc2ccc(NC(=O)c3ccc(C)c(/C=C/c4cnc5[nH]ccc5c4OC)c3)cc2C(F)(F)F)CC1 | – | – | – | – | – | – | 45
